Molecules are shown by their SMILES.

For test [1], the target named is T1, Histone-lysine N-methyltransferase EHMT2 (Homo sapiens, UniProt Q96KQ7).
T1 sequence (Q96KQ7 whole entry): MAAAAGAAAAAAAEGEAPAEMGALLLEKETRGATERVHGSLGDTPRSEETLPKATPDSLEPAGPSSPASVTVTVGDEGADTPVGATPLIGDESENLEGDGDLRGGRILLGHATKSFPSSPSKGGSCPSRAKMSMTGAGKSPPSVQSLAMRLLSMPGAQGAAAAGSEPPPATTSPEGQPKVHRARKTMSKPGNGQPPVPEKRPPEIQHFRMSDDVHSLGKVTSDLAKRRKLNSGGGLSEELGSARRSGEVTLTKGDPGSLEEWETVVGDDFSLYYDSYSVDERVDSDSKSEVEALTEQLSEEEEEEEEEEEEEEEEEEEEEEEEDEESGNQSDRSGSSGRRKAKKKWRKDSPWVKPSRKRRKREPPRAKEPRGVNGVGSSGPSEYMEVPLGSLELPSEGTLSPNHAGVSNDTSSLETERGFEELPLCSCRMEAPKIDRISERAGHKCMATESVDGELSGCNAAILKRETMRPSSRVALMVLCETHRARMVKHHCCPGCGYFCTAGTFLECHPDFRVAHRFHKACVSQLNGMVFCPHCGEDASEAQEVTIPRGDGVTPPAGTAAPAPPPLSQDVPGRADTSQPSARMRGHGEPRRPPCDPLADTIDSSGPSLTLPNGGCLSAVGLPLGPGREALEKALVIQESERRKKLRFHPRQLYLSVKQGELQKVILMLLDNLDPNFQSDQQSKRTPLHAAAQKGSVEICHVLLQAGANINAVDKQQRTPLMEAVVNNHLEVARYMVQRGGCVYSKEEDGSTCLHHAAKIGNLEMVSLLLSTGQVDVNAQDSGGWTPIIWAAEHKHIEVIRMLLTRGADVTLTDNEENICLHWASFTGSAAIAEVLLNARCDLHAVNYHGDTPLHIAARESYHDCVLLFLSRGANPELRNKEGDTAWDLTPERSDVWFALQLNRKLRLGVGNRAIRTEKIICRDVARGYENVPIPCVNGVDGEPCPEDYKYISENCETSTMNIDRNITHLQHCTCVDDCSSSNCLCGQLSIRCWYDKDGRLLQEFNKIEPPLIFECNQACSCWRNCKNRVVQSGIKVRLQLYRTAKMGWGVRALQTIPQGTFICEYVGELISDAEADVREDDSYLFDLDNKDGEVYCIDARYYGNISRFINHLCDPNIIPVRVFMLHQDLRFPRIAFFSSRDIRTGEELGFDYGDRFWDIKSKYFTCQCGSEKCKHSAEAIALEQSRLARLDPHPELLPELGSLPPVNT
Nature of the test: Inhibition of G9a (unknown origin) by AlphaLISA assay.

Test [2] deals with T2, Histone-lysine N-methyltransferase EHMT2 (Homo sapiens) (UniProt Q96KQ7).
T2 sequence (whole entry): T1 sequence (Q96KQ7 whole entry)
Nature of the test: Covalent inhibition of recombinant G9a (unknown origin) assessed as adduct formation intensity by measuring mass after 12 hrs by mass spectrometric analysis.

The test system of a further test is MDA-MB-231. Nature of the test: Antiproliferative activity against human MDA-MB-231 cells assessed as cell viability measured after 24 hrs by CCK-8 assay. The test is classed as functional, cell-based. Particulars: MDA-MB-231, 24 h. (In general: Tetrazolium dyes change colour on reduction, which living cells bring about.)
In test [3] the target is T2, Histone-lysine N-methyltransferase EHMT2 (Homo sapiens). The experiment in a line: Covalent inhibition of recombinant G9a (unknown origin) assessed as adduct formation intensity by mass spectrometric analysis. Particulars: time <= 16.0 hrs, TDE = time-dependent effect.

Consider `C=CC(=O)N(C)c1nc(NC2CCN(C)CC2)c2cc(OC)c(OCCCN3CCCC3)cc2n1`, for which the IC50 – broadly, the concentration that inhibits the measured activity by half – in test [1] is 0.0085 µM; in the test with MDA-MB-231 it was 2.88 µM. Moreover, in test [2], the Activity is 60700 Da. The inhibition result in test [3] was “Tde”.

The values are drawn from ChEMBL document CHEMBL5338815 (J Med Chem, 2023).
